Assay results taken from patent publication US20100022534A1, “2-BENZIMIDAZOLYL-6-MORPHOLINO-4- (AZETIDINE, PYRROLIDINE, PIPERIDINE OR AZEPINE) PYRIMIDINE DERIVATIVES AS PI3K AND MTOR INHIBITORS FOR THE TREATMENT OF PROLIFERATIVE DISORDERS” (AstraZeneca, priority 2006, published 2010).
pIC50: −log10 of the molar value.

How the values were obtained:
[1] = system: phosphorylation of Serine 473 in Akt; assay: In vitro phospho-Ser473 Akt assay in MDA-MB-468 cells, Test (c); format: cell-based; conditions: Homo sapiens, read-out: IC50, inhibition of phosphorylation of Serine 473 in Akt
Description: (c) In Vitro Phospho-Ser473 Akt Assay
This assay determines the ability of test compounds to inhibit phosphorylation of Serine 473 in Akt as assessed using Acumen Explorer technology (TTP LabTech Limited, Royston, Herts, SG8 6EE, UK), a plate reader that can be used to rapidly quantitate features of images generated by laser-scanning.
A MDA-MB-468 human breast adenocarcinoma cell line (LGC Promochem, Teddington, Middlesex, UK, Catalogue No. HTB-132) was routinely maintained at 37° C. with 5% CO2 up to a confluency of 70-90% in DMEM containing 10% FCS and 1% L-glutamine.
For the assay, the cells were detached from the culture flask using ‘Accutase’ (Innovative Cell Technologies Inc., San Diego, Calif., USA; Catalogue No. AT104) using standard tissue culture methods and resuspended in media to give 5.5×10^4 cells per ml. Aliquots (90 μl) were seeded into each of the inner 60 wells of a black ‘Costar’ 96-well plate (Corning Inc., NY, USA; Catalogue No. 3904) to give a density of ˜5000 cells per well. Aliquots (90 μl) of culture media were placed in the outer wells to prevent edge effects. [An alternative cell handling procedure involved the maintenance of the cells in a ‘SelecT’ robotic device (The Automation Partnership, Royston, Herts SG8 5WY, UK). Cells were resuspended in media to give 5×10^4 cells per ml. […]

[2] = biological target: T1, p110α Type Ia human PI3K (Homo sapiens, UniProt P42336); assay: In vitro PI3K enzyme assay (AlphaScreen), Test (a); format: biochemical; conditions: read-out: IC50 versus p110α Type Ia human PI3K
T1 construct: full length DNA of each of the p110α, p110β and p110δ Type Ia human PI3K p110 isoforms; 6-His; made in house
T1 sequence (P42336 whole entry, canonical isoform): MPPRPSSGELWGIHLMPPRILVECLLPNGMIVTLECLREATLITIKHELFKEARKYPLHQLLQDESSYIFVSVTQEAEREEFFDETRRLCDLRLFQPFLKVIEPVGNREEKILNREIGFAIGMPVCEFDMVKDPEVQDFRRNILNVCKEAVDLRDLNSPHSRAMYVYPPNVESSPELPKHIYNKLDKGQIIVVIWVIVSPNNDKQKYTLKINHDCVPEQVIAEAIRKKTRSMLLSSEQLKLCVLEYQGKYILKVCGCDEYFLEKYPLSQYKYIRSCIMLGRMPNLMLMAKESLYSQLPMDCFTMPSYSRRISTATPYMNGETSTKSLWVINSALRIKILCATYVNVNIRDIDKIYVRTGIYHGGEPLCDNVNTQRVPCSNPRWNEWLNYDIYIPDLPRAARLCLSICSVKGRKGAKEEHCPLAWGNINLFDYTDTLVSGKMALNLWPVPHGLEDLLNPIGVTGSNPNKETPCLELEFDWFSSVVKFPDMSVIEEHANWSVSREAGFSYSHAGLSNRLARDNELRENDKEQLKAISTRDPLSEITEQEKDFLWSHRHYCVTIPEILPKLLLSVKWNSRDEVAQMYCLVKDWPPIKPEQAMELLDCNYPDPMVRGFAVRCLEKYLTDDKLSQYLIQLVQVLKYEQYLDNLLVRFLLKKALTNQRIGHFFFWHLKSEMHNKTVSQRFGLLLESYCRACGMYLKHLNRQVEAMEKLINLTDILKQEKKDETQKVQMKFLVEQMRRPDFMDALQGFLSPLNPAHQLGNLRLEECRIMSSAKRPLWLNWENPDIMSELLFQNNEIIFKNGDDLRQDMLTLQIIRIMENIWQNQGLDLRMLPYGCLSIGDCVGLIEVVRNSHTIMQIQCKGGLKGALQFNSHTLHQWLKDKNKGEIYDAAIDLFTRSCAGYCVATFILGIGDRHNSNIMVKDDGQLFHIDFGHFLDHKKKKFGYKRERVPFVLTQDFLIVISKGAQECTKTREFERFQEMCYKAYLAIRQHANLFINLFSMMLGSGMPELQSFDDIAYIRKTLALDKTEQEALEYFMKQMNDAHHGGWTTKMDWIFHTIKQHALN
T1 sequence (P27986 whole entry partner, canonical isoform): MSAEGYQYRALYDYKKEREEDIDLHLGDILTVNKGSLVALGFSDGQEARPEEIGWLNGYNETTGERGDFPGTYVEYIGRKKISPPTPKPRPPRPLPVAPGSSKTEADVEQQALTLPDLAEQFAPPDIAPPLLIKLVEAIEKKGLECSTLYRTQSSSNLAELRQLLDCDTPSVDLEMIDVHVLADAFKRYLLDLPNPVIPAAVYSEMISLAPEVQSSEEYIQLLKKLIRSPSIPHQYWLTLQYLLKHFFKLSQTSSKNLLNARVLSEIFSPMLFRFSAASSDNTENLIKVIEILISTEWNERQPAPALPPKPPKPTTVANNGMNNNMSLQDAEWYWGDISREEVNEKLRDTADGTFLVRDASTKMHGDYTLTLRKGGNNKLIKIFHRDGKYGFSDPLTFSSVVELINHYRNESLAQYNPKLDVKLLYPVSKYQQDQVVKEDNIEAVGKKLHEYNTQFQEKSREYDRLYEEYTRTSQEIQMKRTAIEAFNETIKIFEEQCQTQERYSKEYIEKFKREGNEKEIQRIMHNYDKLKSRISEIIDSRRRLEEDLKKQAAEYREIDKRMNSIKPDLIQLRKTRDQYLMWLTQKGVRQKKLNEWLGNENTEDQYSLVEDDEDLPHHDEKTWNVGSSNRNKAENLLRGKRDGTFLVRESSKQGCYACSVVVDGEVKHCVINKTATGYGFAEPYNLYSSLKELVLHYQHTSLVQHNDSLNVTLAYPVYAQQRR
Text: (a) In Vitro PI3K Enzyme Assay
The assay used AlphaScreen technology (Gray et al., Analytical Biochemistry, 2003, 313: 234-245) to determine the ability of test compounds to inhibit phosphorylation by recombinant Type I PI3K enzymes of the lipid PI(4,5)P2.
DNA fragments encoding human PI3K catalytic and regulatory subunits were isolated from cDNA libraries using standard molecular biology and PCR cloning techniques. The selected DNA fragments were used to generate baculovirus expression vectors. In particular, full length DNA of each of the p110α, p110β and p110δ Type Ia human PI3K p110 isoforms (EMBL Accession Nos. HSU79143, S67334, Y10055 for p110α, p110β and p110δ respectively) were sub-cloned into a pDEST10 vector (Invitrogen Limited, Fountain Drive, Paisley, UK). The vector is a Gateway-adapted version of Fastbac1 containing a 6-His epitope tag. […]
Biotinylated-DiC8-PI(3,4,5)P3 (50 nM; Cell Signals Inc., Catalogue No. 107), recombinant purified GST-Grp1 PH protein (2.5 μM) and AlphaScreen Anti-GST donor and acceptor beads (100 ng; Packard Bioscience Limited, Station Road, Pangbourne, Berkshire, UK, Catalogue No. 6760603M) were added and the assay plates were left for about 5 to 20 hours at room temperature in the dark. The resultant signals arising from laser light excitation at 680 nm were read using a Packard AlphaQuest instrument. […]

SMILES	pIC50 [1]	pIC50 [2]
NCCC1CCN(c2cc(N3CCOCC3)nc(-n3c(C(F)F)nc4ccccc43)n2)CC1 [Example 1, 4-[4-(2-aminoethyl)piperidin-1-yl]-2-(2-difluoromethylbenzimidazol-1-yl)-6-morpholinopyrimidine]	~8.00	~6.70
O=C(NC1CCN(c2cc(N3CCOCC3)nc(-n3c(C(F)F)nc4ccccc43)n2)CC1)[C@@H]1CCCN1 [Example 3, 2-(2-difluoromethylbenzimidazol-1-yl)-6-morpholino-4-(4-prolylaminopiperidin-1-yl)pyrimidine]	~7.00	~6.40
